Values quoted from earlier work, collected in patent US20080206336A1, “Novel Composition Comprising Rosiglitazone and Another Antidiabetic Agent” (SB PHARMCO PURERTO RICO INC. The Prentice Hall Corp. System …, priority 2003, published 2008).

Details: acidic conditions of the stomach (around pH 2) versus near neutral conditions of the lower intestine (around pH 7)

In the case of CN(CCOc1ccc(CC2SC(=O)NC2=O)cc1)c1ccccn1 (stereo not shown) [Compound A, 5-[4-[2-(N-methyl-N-(2 pyridyl)amino)ethoxy]benzyl]thiazolidine-2,4-dione], the pH dependent solubility is given as “marked pH dependent solubility”.
